Experimental findings from patent US12043625B2, “Pyridine derivatives with c-linked cyclic substituents as cGAS inhibitors” (BOEHRINGER INGELHEIM INTERNATIONAL GMBH, priority 2021, dated 2024) are described below.

Assay [1] relates to IFN induction in virus-stimulated THP1 cells. Briefly: Human cGAS cell assay, baculovirus-stimulated THP1-Dual cells, Lucia luciferase reporter (THP1(vir) IC50).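 As to all read-outs here: IRF-dependent luminescence, 8 concentrations up to 10 µM in 1% DMSO, 0% = unstimulated cells, 100% = DMSO plus virus, counter assay stimulated with cGAMP downstream of cGAS.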 It is filed as cell-based. The conditions noted are these: for IC50: Homo sapiens, THP-1, baculovirus-stimulated THP1-Dual cells, 18 h; for Ratio THP(cGAMP) IC50/THP(vir) IC50: selectivity for cGAS inhibition.
Text: THP1-Dual™ cells (InvivoGen #thpd-nfis) expressing IRF dependent Lucia luciferase reporter were used as basis for both assays. For the detection of cellular cGAS activity cells were stimulated by a baculovirus (pFastbac-1, Invitrogen, no coding insert) infection that delivers the cGAS enzyme stimulating double-stranded DNA (measurement of THP1(vir) IC50).
(§1) For the counter assay, cells were stimulated by cGAMP (SigmaAldrich #SML1232) to activate the identical pathway independent and directly downstream of cGAS (measurement of THP1(cAMP) IC50). Pathway activity was monitored by measuring the Lucia luciferase activity induced by either DNA stimulated cGAS enzyme activity (measurement of THP1^(vir) IC50) or by cGAMP directly (measurement of THP1(cAMP) IC50, counter assay).
Typically, 8 concentrations were used with the highest concentration at 10 μM in the final assay volume followed by ˜1:5 dilution steps. DMSO concentration was set to 1% in the final assay volume. The 384 well assay plate contained 21 test compounds (column 1-22), and DMSO in column 23 and 24.
The baculovirus solution was then added 1:200 (may have varied according to virus batch) to the cells (measurement of THP1(vir) IC50).
(§2) 30 μL of the cell/virus-mix were added to each well of the compound plate from column 1-23 via MultiDrop Combi dispenser (5000 cells/well). In column 24, 30 μl/5000 cells/well without virus were added as a low control.
(§3) The plates were then incubated for 18 h at 37° C. in a humidified incubator.
(§4) Following that, 15 μL of QuantiLuc detection reagent (InvivoGen #rep-qlcg5) were added to each well using a MultiDrop Combi. Measurement was done immediately after the addition using an EnVision reader (US-luminescence read-mode).
Data Evaluation and Calculation:
(§5) For data evaluation and calculation, the measurement of the low control was set as 0% control and the measurement of the high control was set as 100% control. The IC50 values were calculated using the standard 4 parameter logistic regression formula. Calculation: [y=(a−d)/(1+(x/c)^b)+d], a=low value, d=high value; x=conc M; c=1C50 M; b=slope
The subject of assay [2] is IFN induction in cGAMP-stimulated THP1 cells. Put plainly: cGAMP stimulated counter cell assay, THP1-Dual cells, Lucia luciferase reporter (THP1(cGAMP) IC50).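 Also: IRF-driven Lucia luciferase luminescence after 18 h at 37° C, compound series topping at 10 µM with 1% DMSO, unstimulated wells as 0% and DMSO wells as 100%.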 It is filed as cell-based. The conditions noted are these: Homo sapiens, THP-1, THP1-Dual cells stimulated with 10 μM cGAMP.
Text: 6.2 Method: Human cGAS Cell Assay and cGAMP Stimulated Counter Cell Assay (THP1(vir) IC50 and THP1(cGAMP) IC50)
THP1-Dual™ cells (InvivoGen #thpd-nfis) expressing IRF dependent Lucia luciferase reporter were used as basis for both assays.
as §1
Compounds were delivered in 10 mM DMSO solution, serially diluted and transferred to the 384 well assay plate (Greiner #781201) using an Echo acoustic dispenser. Typically, 8 concentrations were used with the highest concentration at 10 μM in the final assay volume followed by ˜1:5 dilution steps. DMSO concentration was set to 1% in the final assay volume. The 384 well assay plate contained 21 test compounds (column 1-22), and DMSO in column 23 and 24.
as §2, §3, §4
Data Evaluation and Calculation:
as §5
For assay [3], the system named is IFN induction in dsDNA-stimulated human whole blood. Briefly: Human whole blood assay, dsDNA transfection, IFNα2a production (hWB IC50).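 Also: cGAS pathway activity, IFNα2a in plasma by MSD immunoassay after 22 h at 37 °C, 8 concentrations up to 10 µM in 0.1% DMSO, DMSO controls.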 It is filed as cell-based.
Experimental: For the detection of cellular cGAS activity human whole blood was stimulated by transfection with double stranded DNA. Pathway activity was monitored by measuring the IFNα2α production.
Typically, 8 concentrations were used with the highest concentration at 10 μM in the final assay volume followed by ˜1:5 dilution steps. DMSO concentration was set to 0.1% in the final assay volume. The 96-well assay plate contained 10 test compounds, and DMSO in control wells.
Whole blood was kept at room temperature for a maximum of 3 hours after collection until use in the assay.
160 μl of the whole blood samples was transferred to each well of the 96-well assay plates filled with compound/OptiMEM. All assay plates were prepared as duplicates with blood from different donors. Blood plates were kept at room temperature for 60 minutes and continuous shaking with 450 rpm, covered with the lid, but not sealed.
20 μl OptiMEM and 9.6:1 Fugene was added to all low control wells.
After covering assay plates with aera seals and the lid, blood plates were kept at room temperature for 30 minutes and continuous shaking with 450 rpm, followed by an overnight incubation of 22 h at 37° C. in the incubator, without shaking.
U-Plex MSD GOLD 96-well Small Spot Strepavidin SECTOR Plates (Meso Scale Diagnostics #L45SA-5) were coated with 25 μl diluted capture antibody. Coated plates were incubated for 60 min at room temperature under continuous shaking at 700 rpm. MSD IFNα-2a plates were washed three times with 150 μl wash buffer (1×HBSS, 0.05% Tween).
After blocking the plates with 100 μl block solution/well (1×HBSS with 0.2% Tween, 2% BSA) for 60 min at room temperature and continuous shaking at 700 rpm, plates were emptied as dry as possible by dumping just before continuing with the human plasma.
Whole Blood assay plates were centrifuged at 1600 rpm for 10 minutes. 25 μl of supernatant was transferred with a pipetting robot from each whole blood plate to the corresponding IFNα-2a plate.
Plates were sealed with microplate seals and kept at room temperature again under continuous shaking at 700 rpm for two hours.
Next MSD IFNα-2a plates were washed three times with 150 μl wash buffer (1×HBSS, 0.05% Tween), before adding 25 μl MSD SULFO-TAG IFNα-2a Antibody solution (1:100 diluted in Diluent 3 (Meso Scale Diagnostics #R50AP-2) to each well of the plates.
Afterwards plates were sealed with microplate seals and kept at room temperature again under continuous shaking at 700 rpm for two hours. Finally, MSD IFNα-2α plates were washed three times with 150 μl wash buffer (1×HBSS, 0.05% Tween). 150 μl 2× Read buffer was added to each well and plates were immediately measured with the MSD Sector S600 Reader using the vendor barcode.
For data evaluation and calculation, % control calculation of each well was based on the mean of high (DNA stimulated control) and mean of low (unstimulated control) controls by using the following formula: [counts(sample)−counts(low))/(counts(high)−counts(low))]*100
The IC50 values were calculated using the standard 4 parameter logistic regression formula. Calculation: [y=(a−d)/(1+(x/c)^b)+d], a=low value, d=high value; x=conc M; c=1C50 M; b=slope
The target of another assay is Human cGAS (Homo sapiens (Human), UniProt Q8N884). Briefly: Human cGAS enzyme assay (hcGAS IC50, in vitro), cGAMP formation by RapidFire MS.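 Also: compounds preincubated 60 min, then GTP and ATP (30 µM each) added for 90 min at room temperature, cGAMP read relative to cyclic-di-GMP internal standard, no-enzyme/DNA wells as 0%.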 The conditions noted are these: 45 bp dsDNA, GTP/ATP. It is filed as biochemical.
Sequence of Human cGAS (Q8N884 whole entry): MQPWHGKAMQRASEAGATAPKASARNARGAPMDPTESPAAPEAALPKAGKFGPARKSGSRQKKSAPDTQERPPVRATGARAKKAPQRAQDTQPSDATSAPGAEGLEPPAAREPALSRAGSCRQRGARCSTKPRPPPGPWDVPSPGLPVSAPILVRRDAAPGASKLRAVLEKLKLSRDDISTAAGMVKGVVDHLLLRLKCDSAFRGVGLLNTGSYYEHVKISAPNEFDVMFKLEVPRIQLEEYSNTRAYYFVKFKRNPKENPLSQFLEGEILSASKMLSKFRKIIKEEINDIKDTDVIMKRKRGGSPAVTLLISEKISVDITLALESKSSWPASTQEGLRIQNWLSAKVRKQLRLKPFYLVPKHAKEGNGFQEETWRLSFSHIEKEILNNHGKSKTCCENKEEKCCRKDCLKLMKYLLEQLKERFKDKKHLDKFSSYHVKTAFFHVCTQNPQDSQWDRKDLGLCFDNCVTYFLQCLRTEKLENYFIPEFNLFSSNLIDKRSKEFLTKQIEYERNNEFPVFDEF

Consider `C#Cc1cnc(O[C@H]2C[C@@H](C(=O)O)N(c3nc(C(F)(F)F)nc4c3oc3ccccc34)C2)c(C23CCOCC2C3)c1` (stereo partly drawn) [Example 4.01, (2S,4S)-4-[(5-ethynyl-3-{3-oxabicyclo[4.1.0]heptan-6-yl}pyridin-2-yl)oxy]-1-[4-(trifluoromethyl)-8-oxa-3,5-diazatricyclo[7.4.0.0^2,7]trideca-1(13),2,4,6,9,11-hexaen-6-yl]pyrrolidine-2-carboxylic acid], for which the IC50 was 784 nM in assay [1], over 16.6 µM in assay [2], 1500 nM in assay [3] and 8 nM on Human cGAS. Also, the “Ratio THP(cGAMP) IC50/THP(vir) IC50” value in assay [1] is on record as over 21.

Regarding `C#Cc1cnc(O[C@H]2C[C@@H](C(=O)O)N(c3nc(C(F)(F)F)nc4c3oc3ccccc34)C2)c([C@@]2(F)CCS(=O)(=O)C[C@@H]2C)c1` [Example 2.12], the IC50 in assay [1] came to 8 nM; in assay [2] it was 21.8 µM; in assay [3], 8 nM; against Human cGAS, 3 nM. In addition, in assay [1], the “Ratio THP(cGAMP) IC50/THP(vir) IC50” value is 2619.

Turning to `C#Cc1cnc(O[C@H]2C[C@@H](C(=O)O)N(c3nc(C(F)(F)F)nc4c3oc3ccccc34)C2)c([C@]2(F)CCS(=O)(=O)C(C)(C)C2)c1` [Example 1.14], the IC50 is 42 nM in assay [1], 5.28 µM in assay [2], 53 nM in assay [3] and 9 nM on Human cGAS. In assay [1], the “Ratio THP(cGAMP) IC50/THP(vir) IC50” value turned out to be 127.

In the case of `O=C(O)[C@@H]1C[C@H](Oc2ncc(Cl)cc2C2(F)CCS(=O)(=O)CC2)CN1c1nc(C(F)F)nc2c1oc1ccccc12` [Example 2.01, (2S,4S)-4-{[5-Chloro-3-(4-fluoro-1,1-dioxo-1-I-6-thian-4-yl)pyridin-2-yl]oxy}-1-[4-(difluoromethyl)-8-oxa-3,5-diazatricyclo[7.4.0.0^2,7]trideca-1(13),2,4,6,9,11-hexaen-6-yl]pyrrolidine-2-carboxylic acid], the half-maximal inhibitory concentration (IC50) in assay [1] was 179 nM; in assay [2], over 16.6 µM; on Human cGAS, 3 nM. Further, in assay [1], the “Ratio THP(cGAMP) IC50/THP(vir) IC50” value was over 93.

As to `CC(=O)N1CC[C@](F)(c2cc(-c3cccc(N(C)C)c3)cnc2O[C@H]2C[C@@H](C(=O)O)N(c3nc(C(F)F)nc4c3oc3ccccc34)C2)[C@@H](C)C1` [Example 3.04], the IC50 in assay [1] is 16 nM; in assay [2], 10.5 µM; in assay [3], 46 nM; against Human cGAS it was 29 nM. The “Ratio THP(cGAMP) IC50/THP(vir) IC50” value in assay [1] is 650.

Consider `C#Cc1cnc(O[C@H]2C[C@@H](C(=O)O)N(c3nc(C(F)F)nc4c3oc3ccccc34)C2)c([C@@]2(F)CCOC[C@@H]2C)c1` [Example 1.02], for which the concentration for half-maximal inhibition (IC50) was found to be 351 nM in assay [1], 18.9 µM in assay [2], 103 nM in assay [3] and 3 nM against Human cGAS. For the same compound, in assay [1], the “Ratio THP(cGAMP) IC50/THP(vir) IC50” value came out at 54.

Turning to `CC#Cc1cnc(O[C@H]2C[C@@H](C(=O)O)N(c3nc(C(F)F)nc4c3oc3ccccc34)C2)c([C@@]2(F)CCN(C(C)=O)C[C@@H]2C)c1` [Example 2.18], the IC50 in assay [1] worked out at 59 nM; in assay [2], 12.6 µM; in assay [3], 97 nM; at Human cGAS it was 13 nM. For the same compound, the “Ratio THP(cGAMP) IC50/THP(vir) IC50” value in assay [1] came out at 215.

On to `O=C(O)[C@@H]1C[C@H](Oc2ncc(Br)cc2C2(F)CCS(=O)(=O)CC2)CN1c1nc(C(F)F)nc2c1oc1ccccc12` [Example 2.04], for which the IC50 in assay [1] was 638 nM; in assay [2], over 16.6 µM; in assay [3], 115 nM; against Human cGAS it was 5 nM. Also, in assay [1], the “Ratio THP(cGAMP) IC50/THP(vir) IC50” value is recorded as over 26.

For `O=C(O)[C@@H]1C[C@H](Oc2ncc(Cl)cc2[C@]2(F)CCS(=O)(=O)C3(CCC3)C2)CN1c1nc(C(F)F)nc2c1oc1ccccc12` [Example 1.21], the IC50 in assay [1] worked out at 126 nM; in assay [2], 9.28 µM; in assay [3], 76 nM; at Human cGAS, 5 nM. In assay [1], the “Ratio THP(cGAMP) IC50/THP(vir) IC50” value is reported as 74.

With `C#Cc1cnc(O[C@H]2C[C@@H](C(=O)O)N(c3nc(C(F)F)nc4c3oc3ccccc34)C2)c([C@@]2(F)CC(C)(C)S(=O)(=O)C[C@@H]2C)c1` [Example 1.09], the IC50 in assay [1] is under 5 nM; in assay [2], 15.8 µM; in assay [3], 4 nM; against Human cGAS, 4 nM. Moreover, the “Ratio THP(cGAMP) IC50/THP(vir) IC50” value in assay [1] is listed as over 2935.

For `CC(C)(C(=O)N[C@H]1C[C@@H](C(=O)O)N(c2nc(C(F)(F)F)nc3c2oc2ccccc23)C1)c1cn[nH]c1` [Example 58, reference compound], the IC50 in assay [1] was 21000 nM; in assay [2], 23 µM; in assay [3] it was over 9980 nM.

For the compound `CC1(C)C[C@](F)(c2cc(Cl)cnc2O[C@H]2C[C@@H](C(=O)O)N(c3nc(C(F)F)nc4c3oc3ccccc34)C2)CCS1(=O)=O` [Example 2.08], the IC50 was 25 nM in assay [1], 12 µM in assay [2], 28 nM in assay [3] and 5 nM against Human cGAS. The “Ratio THP(cGAMP) IC50/THP(vir) IC50” value in assay [1] turned out to be 479.

For the compound `N#CN1CCC(F)(c2cc(Cl)cnc2O[C@H]2C[C@@H](C(=O)O)N(c3nc(C(F)F)nc4c3oc3ccccc34)C2)CC1` [Example 2.05], the IC50 stood at 718 nM in assay [1], 16.7 µM in assay [2], 945 nM in assay [3] and 6 nM at Human cGAS. Further, in assay [1], the “Ratio THP(cGAMP) IC50/THP(vir) IC50” value came out at 23.

For `C[C@H]1CS(=O)(=O)C(C)(C)C[C@]1(F)c1cc(Cl)cnc1O[C@H]1C[C@@H](C(=O)O)N(c2nc(C(F)(F)F)nc3c2oc2ccccc23)C1` [Example 1.06], the IC50 in assay [1] amounted to 12 nM; in assay [2], 5.82 µM; in assay [3], 24 nM; at Human cGAS, 5 nM. Further, the “Ratio THP(cGAMP) IC50/THP(vir) IC50” value in assay [1] is 479.

With `O=C(O)[C@@H]1C[C@H](Oc2ncc(Cl)cc2[C@@]2(F)CCS(=O)(=O)C3(CC3)C2)CN1c1nc(C(F)F)nc2c1oc1ccccc12` [Example 1.18], the half-maximal inhibitory concentration (IC50) in assay [1] was found to be 535 nM; in assay [2], 10.9 µM; in assay [3] it was 287 nM; against Human cGAS, 9 nM. The “Ratio THP(cGAMP) IC50/THP(vir) IC50” value in assay [1] was found to be 20.

With `C#Cc1cnc(O[C@H]2C[C@@H](C(=O)O)N(c3nc(C(F)F)nc4c3oc3ccccc34)C2)c([C@]2(F)CC(C)(C)S(=O)(=O)C[C@@H]2C)c1` [Example 1.10], the IC50 in assay [1] was 82 nM; in assay [2], 2.25 µM; in assay [3], 70 nM; on Human cGAS it was 40 nM. Moreover, the “Ratio THP(cGAMP) IC50/THP(vir) IC50” value in assay [1] came to 28.

Consider `Cc1nc(N2CCC[C@H]2C(=O)O)c2oc3ccccc3c2n1` [Example 15, reference compound], for which the IC50 in assay [1] was over 17000 nM; in assay [2], over 17 µM.

With `C[C@H]1CN(C(N)=O)CC[C@]1(F)c1cc(Cl)cnc1O[C@H]1C[C@@H](C(=O)O)N(c2nc(C(F)F)nc3c2oc2ccccc23)C1` [Example 1.24], the IC50 in assay [1] worked out at 248 nM; in assay [2] it was 21.8 µM; in assay [3] it was 479 nM; at Human cGAS it was 7 nM. Also, the “Ratio THP(cGAMP) IC50/THP(vir) IC50” value in assay [1] amounted to 88.

In the case of `CO[C@]1(c2cc(Cl)cnc2O[C@H]2C[C@@H](C(=O)O)N(c3nc(C(F)F)nc4c3oc3ccccc34)C2)CC(C)(C)S(=O)(=O)C[C@@H]1C` [Example 1.05], the IC50 in assay [1] was determined as 44 nM; in assay [2], 13.2 µM; in assay [3], 135 nM; against Human cGAS, 2 nM. Further, in assay [1], the “Ratio THP(cGAMP) IC50/THP(vir) IC50” value came to 298.

Consider `C[C@@H]1CS(=O)(=O)CC[C@@]1(F)c1cc(Cl)cnc1O[C@H]1C[C@@H](C(=O)O)N(c2nc(C(F)F)nc3c2oc2ccccc23)C1` [Example 1.12], for which the half-maximal inhibitory concentration (IC50) in assay [1] was 314 nM; in assay [2], 15.3 µM; against Human cGAS, 9 nM.

`C#Cc1cnc(O[C@H]2C[C@@H](C(=O)O)N(c3nc(C(F)(F)F)nc4c3oc3ccccc34)C2)c([C@@]2(F)CC(C)(C)S(=O)(=O)C[C@@H]2C)c1` [Example 1.08]: the IC50 in assay [1] amounted to 4 nM; in assay [2], 13.9 µM; in assay [3] it was 16 nM; against Human cGAS it was 4 nM. Also, in assay [1], the “Ratio THP(cGAMP) IC50/THP(vir) IC50” value was 3275.

Take `C#Cc1cnc(O[C@H]2C[C@@H](C(=O)O)N(c3nc(C(F)F)nc4c3oc3ccccc34)C2)c([C@@]2(F)CCS(=O)(=O)C[C@@H]2C)c1` [Example 2.11]: the IC50 in assay [1] was 4 nM; in assay [2], over 16.6 µM; in assay [3] it was 3 nM; at Human cGAS it was 2 nM. In addition, the “Ratio THP(cGAMP) IC50/THP(vir) IC50” value in assay [1] was over 3829.

`C#Cc1cnc(O[C@H]2C[C@@H](C(=O)O)N(c3nc(C(F)F)nc4c3oc3ccccc34)C2)c([C@]2(F)CCS(=O)(=O)C[C@H]2C)c1` [Example 2.14]: the half-maximal inhibitory concentration (IC50) was 248 nM in assay [1], 7.76 µM in assay [2], 124 nM in assay [3] and 5 nM on Human cGAS. Moreover, in assay [1], the “Ratio THP(cGAMP) IC50/THP(vir) IC50” value was found to be 31.

Regarding `Cc1nc(N2C[C@@H](CC(=O)Nc3ccncc3)C[C@H]2C(=O)O)c2oc3ccccc3c2n1` [Example 28, reference compound], the IC50 in assay [1] was over 32000 nM; in assay [2], over 17 µM; in assay [3] it was over 9990 nM.

Take `Cc1nc(N2C[C@@H](Nc3ccncc3)C[C@H]2C(=O)O)c2oc3ccccc3c2n1` [Example 38, reference compound]: the half-inhibitory concentration (IC50) is over 17000 nM in assay [1], over 17 µM in assay [2] and over 9990 nM in assay [3].

Take `C[C@H]1COCC[C@]1(O)c1cc(Cl)cnc1O[C@H]1C[C@@H](C(=O)O)N(c2nc(C(F)F)nc3c2oc2ccccc23)C1` [Example 1.01, (2S,4S)-4-({5-Chloro-3-[(3S,4R)-4-hydroxy-3-methyloxan-4-yl]pyridin-2-yl}oxy)-1-[4-(difluoro-methyl)-8-oxa-3,5-diazatricyclo[7.4.0.0^2,7]trideca-1(13),2,4,6,9,11-hexaen-6-yl]pyrrolidine-2-carboxylic acid]: the IC50 is 530 nM in assay [1], over 16.6 µM in assay [2] and 5 nM at Human cGAS. The “Ratio THP(cGAMP) IC50/THP(vir) IC50” value in assay [1] is over 31.
